Laboratory results: ChEMBL document CHEMBL1140142, “Myxochromide B3, a new member of the myxochromide family of secondary metabolites” (J Nat Prod, 2008)
Active and inactive are the calls of the source.

What was measured:
Format in all cases: functional, organism-based
Priestia megaterium = test: Antimicrobial activity against Bacillus megaterium at 50 ug/disk by disk diffusion assay
Escherichia coli = test: Antimicrobial activity against Escherichia coli at 50 ug/disk by disk diffusion assay
Microbotryum violaceum = test: Antimicrobial activity against Microbotryum violaceum at 50 ug/disk by disk diffusion assay
Aspergillus ruber = test: Antimicrobial activity against Eurotium rubrum at 50 ug/disk by disk diffusion assay
[Chlorella] fusca = Antimicrobial activity against Chlorella fusca at 50 ug/disk by disk diffusion assay; conditions: Scenedesmus fuscus
Mycotypha microspora = test: Antimicrobial activity against Mycotypha microspora at 50 ug/disk by disk diffusion assay

Measured: Activity

C/C=C/C=C/C=C/C=C/C=C/C=C/C=C/C=C/C(=O)N(C)[C@@H]1C(=O)N[C@H](C)C(=O)N[C@@H](CC(C)C)C(=O)N2CCC[C@H]2C(=O)N[C@@H](C)C(=O)N[C@@H](CCC(N)=O)C(=O)O[C@@H]1C
inactive: Priestia megaterium | Escherichia coli | Microbotryum violaceum | Aspergillus ruber | [Chlorella] fusca | Mycotypha microspora

C/C=C/C=C/C=C/C=C/C=C/C=C/C=C/C=C/C(=O)N(C)[C@@H]1C(=O)N[C@H](C)C(=O)N[C@@H](CC(C)C)C(=O)N[C@@H](CC(C)C)C(=O)N2CCC[C@H]2C(=O)N[C@@H](C)C(=O)N[C@@H](CCC(N)=O)C(=O)O[C@@H]1C
inactive: Priestia megaterium | Escherichia coli | Microbotryum violaceum | Aspergillus ruber | [Chlorella] fusca | Mycotypha microspora
